Experimental data reported in patent US8637263B1, “Assay for determination of compounds having anti-emetic activity” (Epiomed Therapeutics, Inc., priority 2010, dated 2014).
Counter-ions that a name gives are not always drawn.

Test system: xylazine-induced emesis
Test: Xylazine-induced emesis in cats, with defensive behavior/anxiety scoring
Assay type: in vivo
Details: for anxiety 15 minutes after treatment / protection against xylazine-induced emesis / cats that vomited: FIG. 1, female cats; for protection against xylazine-induced emesis / cats that vomited: observed 30 min; for Defensive Behavior Scale / Mean Defensive Score / % Protection (vomiting) / Mean Latency (to retch/vomit): cats; for % Protection (vomiting) / Mean Latency (to retch/vomit): xylazine 0.66 mg/kg; for anxiety-inducing effect in test subjects / effectiveness in preventing chemically-induced emesis: administered alone, summary statement
Procedure: […], 0.66 mg/kg xylazine was administered subcutaneously, and the test subjects where then observed for 30 minutes.
Cats not susceptible to motion sickness were assigned to the xylazine testing group. Xylazine stimulates receptors on a pathway different from that used by motion sickness and thus served as a test of the generality of anti-emetic effects observed with motion testing.
Prior to the evaluation of anti-emetic compounds, the production of an emetic response by xylazine in felines was confirmed in the laboratory. Cats were injected subcutaneously with either a freshly prepared solution of 0.66 mg/kg of xylazine in 0.9% sodium chloride or 0.9% sodium chloride vehicle, both adjusted to an injection volume of 0.1 ml/kg.
One week following the confirmation of an emetic response by the cats, subject cats were given either vehicle or test compound/composition in 0.9% sodium chloride or vehicle (injection volume of 0.1 ml/kg) subcutaneously, 20 minutes before administration of xylazine. […] Animals were scored using the vomit scale developed by Suri et al., 1979. Additional experiments were separated by at least a 1 week washout period.
A. Vomit Scale Scoring: • 1. Sal I (licking—parasympathetic): 1 pt • 2. Sal II (drool, thin/frothy—early sympathetic): 2 pts • 3. Sal III (stringy saliva, dangles—sympathetic): 4 pts • 4. Defection: 8 pts • 5. Urination: 8 pts • 6. Wretch/vomiting: 16 pts
B. Defensive Behavior Scale: • 1. No defensiveness: normal behavior; • 2. Slight defensiveness: retreating to the rear of the cage when approached and/or growling when being carried; • 3. […] Strong defensiveness: vigorous clawing and biting to prevent being handled. IV. Statistical Methods
Dose response curves were analyzed by Cochran's Q-test to establish significant effects. Paired comparisons were made using McNemar's test. Tests for line parallelism, relative potency and ED50 were based on least squares regression in a program for pharmacological statistics. The data from the nonparametric rating scale was analyzed using Friedman's analysis of variance model (ANOVA).

[1] = 0.08 mg/kg SC 15 min before xylazine 0.66 mg/kg SC

For `CCCN(CCC)C1CCc2cccc(O)c2C1` (racemic) [R/S-(+/−)-DPAT, (±)-8-Hydroxy-2-(dipropylamino)tetralin], which “anxiety 15 minutes after treatment” value (0.16 mg/kg SC) is on record?
The value was “moderate level of anxiety”.

What about the “protection against xylazine-induced emesis” value (0.16 mg/kg SC 15 min before xylazine 0.66 mg/kg SC) of the same compound?
The value was 100%.

What about the “Defensive Behavior Scale” value (0.16 mg/kg SC) of the same compound?
Its value is “Moderate”.

And the “Mean Defensive Score” value (0.16 mg/kg SC)?
Its value is 2.0.

What about the “% Protection (vomiting)” value (0.16 mg/kg SC) of the same compound?
The value was 100.00%.

With `CCCN(CCC)[C@H]1CCc2cccc(O)c2C1` [S-(−)-DPAT, S(−)-8-Hydroxy-2-(dipropylamino)tetralin hydrobromide] as the compound, how does the “anxiety 15 minutes after treatment” value (0.08 mg/kg SC) read?
Its value is “did not show any anxiety”.

What about the cats that vomited [1] of the same compound?
The cats that vomited was 40%.

What about the “protection against xylazine-induced emesis” value [1] of the same compound?
The value was 60%.

What about the “anxiety-inducing effect in test subjects” value of the same compound?
Its value is “no anxiety or only slight anxiety”.

And the “effectiveness in preventing chemically-induced emesis” value?
Its value is “not fully effective”.

What about the “Defensive Behavior Scale” value (0.08 mg/kg SC) of the same compound?
The value was “None”.

And the “% Protection (vomiting)” value (0.08 mg/kg SC)?
Its value is 75.00%.

What about the “Mean Latency (to retch/vomit)” value (0.08 mg/kg SC) of the same compound?
Its value is 1.58 min.

And the “Defensive Behavior Scale” value (0.16 mg/kg SC)?
Its value is “None”.

What about the “% Protection (vomiting)” value (0.16 mg/kg SC) of the same compound?
The value was 85.71%.

And the “Mean Latency (to retch/vomit)” value (0.16 mg/kg SC)?
Its value is 0.82 min.

What about the “Defensive Behavior Scale” value (0.32 mg/kg SC) of the same compound?
The value was “Slight”.

And the “Mean Defensive Score” value (0.32 mg/kg SC)?
The value was 1.0.

What about the “% Protection (vomiting)” value (0.32 mg/kg SC) of the same compound?
The value was 80.00%.

And the “Mean Latency (to retch/vomit)” value (0.32 mg/kg SC)?
Its value is 1.00 min.

Which “anxiety 15 minutes after treatment” value (0.08 mg/kg SC) does the source give for `CCCN(CCC)[C@@H]1CCc2cccc(O)c2C1` [R-(+)-DPAT, R(+)-8-Hydroxy-2-(dipropylamino)tetralin hydrobromide] here?
Its value is “extreme level of anxiety”.

What about the cats that vomited [1] of the same compound?
Its cats that vomited is “none of the cats vomited”.

And the “anxiety-inducing effect in test subjects” value?
Its value is “moderate to strong”.

And the “effectiveness in preventing chemically-induced emesis” value?
The value was 100%.

What about the “Defensive Behavior Scale” value (0.02 mg/kg SC) of the same compound?
The value was “Moderate”.

What about the “Mean Defensive Score” value (0.02 mg/kg SC) of the same compound?
Its value is 2.0.

What about the “% Protection (vomiting)” value (0.02 mg/kg SC) of the same compound?
The value was 100.00%.

What about the “Defensive Behavior Scale” value (0.04 mg/kg SC) of the same compound?
Its value is “Strong”.

And the “Mean Defensive Score” value (0.04 mg/kg SC)?
Its value is 3.0.

And the “% Protection (vomiting)” value (0.04 mg/kg SC)?
Its value is 100.00%.

What about the “Defensive Behavior Scale” value (0.08 mg/kg SC) of the same compound?
The value was “Strong”.

What about the “Mean Defensive Score” value (0.08 mg/kg SC) of the same compound?
The value was 3.0.

And the “% Protection (vomiting)” value (0.08 mg/kg SC)?
The value was 100.00%.
